This test deals with T1, mouse VISTA (mVISTA) (Mus musculus, UniProt Q9D659).
T1 construct: expressed in transfected cells; host or cells: Human embryonic kidney 293T cells
T1 sequence (Q9D659 33-308): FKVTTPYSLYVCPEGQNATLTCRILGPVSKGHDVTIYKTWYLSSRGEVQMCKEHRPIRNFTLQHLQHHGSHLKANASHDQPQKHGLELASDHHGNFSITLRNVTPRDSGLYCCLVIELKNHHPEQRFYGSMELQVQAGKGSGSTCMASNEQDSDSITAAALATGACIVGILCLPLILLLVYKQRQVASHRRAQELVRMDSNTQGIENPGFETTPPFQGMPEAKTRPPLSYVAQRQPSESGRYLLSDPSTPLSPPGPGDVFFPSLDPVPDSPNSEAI
Briefly: Cell-Based Binding High-Content Assay For mVISTA (HC CBA mVISTA). The conditions noted are these: the 20th table, scaffold drawing 23; read-out: HC CBA mVISTA IC50. Put shortly:
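Competition of compound with a biotinylated peptide (final 2 nM, 30 min at RT) for binding to mVISTA on 293T cells, run under no-wash or wash (1 h compound preincubation then removal) formats. Readout by Alexa 647–streptavidin imaging on a high-content platform; four-parameter logistic fit gave IC50.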

pIC50: −log10 of the molar value. Positions of bridges follow the written chain, without caps; N, C: chain ends. Non-standard residues stand in square brackets, D forms with d. Residues, ends and D or L forms follow the SMILES beside them. *: point of attachment. Phe(3,4,5-F3) = N[C@@H](Cc1cc(F)c(F)c(F)c1)C(=O)O; Phe(3,4-(OMe)2) = COc1ccc(C[C@H](N)C(=O)O)cc1OC; Phe(4-CF3) = N[C@@H](Cc1ccc(C(F)(F)F)cc1)C(=O)O; Trp(1-Me) = Cn1cc(C[C@H](N)C(=O)O)c2ccccc21; Phe(4-NH2) = Nc1ccc(C[C@H](N)C(=O)O)cc1; Phe(4-F) = N[C@@H](Cc1ccc(F)cc1)C(=O)O; 2Nal = N[C@@H](Cc1ccc2ccccc2c1)C(=O)O; Ahp(2) = CCCCC[C@H](N)C(=O)O; NHexGly = CCCCCCNCC(=O)O; Nle = CCCC[C@H](N)C(=O)O; Allyl = C=CC*

Turning to `CCCCCCN1CC(=O)N[C@@H](Cc2ccc(O)cc2)C(=O)N[C@@H](CCCC)C(=O)N[C@@H](CC(N)=O)C(=O)N[C@@H](CCCNC(=N)N)C(=O)N[C@@H](CC(C)C)C(=O)N[C@@H](CCCCC)C(=O)N2CCC[C@H]2C(=O)N[C@@H](C(C)C)C(=O)N[C@@H](CC(=O)O)C(=O)N[C@H](C(=O)NCC(=O)O)CSCC(=O)N[C@@H](Cc2ccc3ccccc3c2)C(=O)N[C@@H](Cc2cn(C)c3ccccc23)C(=O)N[C@@H](CC(=O)O)C1=O` [compound 1454] ({CH2CO}-[2Nal][Trp(1-Me)]D[NHexGly]Y[Nle]NRL[Ahp(2)]PVDCG-OH; thioether N-14), the pIC50 – broadly, the IC50 on a negative log10 scale, so that one unit is a factor of ten – was 8.44.

As for `CCCCCCN1CC(=O)N[C@@H](Cc2ccc(O)cc2)C(=O)N[C@@H](CCCC)C(=O)N[C@@H](CC(N)=O)C(=O)N[C@@H](CCCNC(=N)N)C(=O)N[C@@H](CC(C)C)C(=O)N[C@@H](CCCCC)C(=O)N2CCC[C@H]2C(=O)N[C@@H](C(C)C)C(=O)N[C@@H](CC(=O)O)C(=O)N[C@H](C(=O)NCC(=O)O)CSCC(=O)N[C@@H](Cc2ccccc2)C(=O)N[C@@H](Cc2cn(C)c3ccccc23)C(=O)N[C@@H](CC(=O)O)C1=O` [compound 1455] ({CH2CO}-F[Trp(1-Me)]D[NHexGly]Y[Nle]NRL[Ahp(2)]PVDCG-OH; thioether N-14), the pIC50 was 8.46.

On to `CCCCCCN1CC(=O)N[C@@H](Cc2ccc(O)cc2)C(=O)N[C@@H](CCCC)C(=O)N[C@@H](CC(N)=O)C(=O)N[C@@H](CCCNC(=N)N)C(=O)N[C@@H](CC(C)C)C(=O)N[C@@H](CCCCC)C(=O)N2CCC[C@H]2C(=O)N[C@@H](C(C)C)C(=O)N[C@@H](CC(=O)O)C(=O)N[C@H](C(=O)NCC(=O)O)CSCC(=O)N[C@@H](Cc2cc(F)c(F)c(F)c2)C(=O)N[C@@H](Cc2c[nH]c3ccccc23)C(=O)N[C@@H](CC(=O)O)C1=O` [compound 1456] ({CH2CO}-[Phe(3,4,5-F3)]WD[NHexGly]Y[Nle]NRL[Ahp(2)]PVDCG-OH; thioether N-14), for which the pIC50 is 7.77.

As for `CCCCCCN1CC(=O)N[C@@H](Cc2ccc(O)cc2)C(=O)N[C@@H](CCCC)C(=O)N[C@@H](CC(N)=O)C(=O)N[C@@H](CCCNC(=N)N)C(=O)N[C@@H](CC(C)C)C(=O)N[C@@H](CCCCC)C(=O)N2CCC[C@H]2C(=O)N[C@@H](C(C)C)C(=O)N[C@@H](CC(=O)O)C(=O)N[C@H](C(=O)NCC(=O)O)CSCC(=O)N[C@@H](Cc2cc(F)c(F)c(F)c2)C(=O)N[C@@H](Cc2ccc(O)cc2)C(=O)N[C@@H](CC(=O)O)C1=O` [compound 1457] ({CH2CO}-[Phe(3,4,5-F3)]YD[NHexGly]Y[Nle]NRL[Ahp(2)]PVDCG-OH; thioether N-14), the pIC50 is 7.94.

On to `CCCCCCN1CC(=O)N[C@@H](Cc2ccc(O)cc2)C(=O)N[C@@H](CCCC)C(=O)NCC(=O)N[C@@H](CCCNC(=N)N)C(=O)N[C@@H](CC(C)C)C(=O)N[C@@H](CCCCC)C(=O)N2CCC[C@H]2C(=O)N[C@@H](C(C)C)C(=O)N[C@@H](CC(=O)O)C(=O)N[C@H](C(=O)NCC(=O)O)CSCC(=O)N[C@@H](Cc2ccc(OC)c(OC)c2)C(=O)N[C@@H](Cc2ccc(O)cc2)C(=O)N[C@@H](CC(=O)O)C1=O` [compound 1458] ({CH2CO}-[Phe(3,4-(OMe)2)]YD[NHexGly]Y[Nle]GRL[Ahp(2)]PVDCG-OH; thioether N-14), for which the pIC50 is 7.47.

Consider `CCCCCCN1CC(=O)N[C@@H](Cc2ccc(O)cc2)C(=O)N[C@@H](CCCC)C(=O)N[C@@H](CC(N)=O)C(=O)N[C@@H](CCCNC(=N)N)C(=O)N[C@@H](CC(C)C)C(=O)N[C@@H](CCCCC)C(=O)N2CCC[C@H]2C(=O)N[C@@H](C(C)C)C(=O)N[C@@H](CC(=O)O)C(=O)N[C@H](C(=O)NCC(=O)O)CSCC(=O)N[C@@H](Cc2ccc(C(F)(F)F)cc2)C(=O)N[C@@H](Cc2c[nH]c3ccccc23)C(=O)N[C@@H](CC(=O)O)C1=O` [compound 1459] ({CH2CO}-[Phe(4-CF3)]WD[NHexGly]Y[Nle]NRL[Ahp(2)]PVDCG-OH; thioether N-14), for which the negative logarithm of the IC50 (pIC50) was 7.63.

Regarding `CCCCCCN1CC(=O)N[C@@H](Cc2ccc(O)cc2)C(=O)N[C@@H](CC(C)C)C(=O)N[C@@H](CC(N)=O)C(=O)N[C@@H](CCCNC(=N)N)C(=O)N[C@@H](CC(C)C)C(=O)N[C@@H](CCCCC)C(=O)N2CCC[C@H]2C(=O)N[C@@H](C(C)C)C(=O)N[C@@H](C(C)C)C(=O)N[C@H](C(=O)NCC(=O)O)CSCC(=O)N[C@@H](Cc2ccc(C(F)(F)F)cc2)C(=O)N[C@@H](Cc2c[nH]c3ccccc23)C(=O)N[C@@H](CC(=O)O)C1=O` [compound 1460] ({CH2CO}-[Phe(4-CF3)]WD[NHexGly]YLNRL[Ahp(2)]PVVCG-OH; thioether N-14), the negative logarithm of the IC50 (pIC50) was 8.06.

Regarding `CCCCCCN1CC(=O)N[C@@H](Cc2ccc(O)cc2)C(=O)N[C@@H](CCCC)C(=O)N[C@@H](CC(N)=O)C(=O)N[C@@H](CCCNC(=N)N)C(=O)N[C@@H](CC(C)C)C(=O)N[C@@H](CCCCC)C(=O)N2CCC[C@H]2C(=O)N[C@@H](C(C)C)C(=O)N[C@@H](CC(=O)O)C(=O)N[C@H](C(=O)NCC(=O)O)CSCC(=O)N[C@@H](Cc2ccc(C(F)(F)F)cc2)C(=O)N[C@@H](Cc2ccc(O)cc2)C(=O)N[C@@H](CC(=O)O)C1=O` [compound 1461] ({CH2CO}-[Phe(4-CF3)]YD[NHexGly]Y[Nle]NRL[Ahp(2)]PVDCG-OH; thioether N-14), the pIC50 was 8.30.

As to `CCCCCCN1CC(=O)N[C@@H](Cc2ccc(O)cc2)C(=O)N[C@@H](CCCC)C(=O)N[C@@H](CC(N)=O)C(=O)N[C@@H](CCCNC(=N)N)C(=O)N[C@@H](CC(C)C)C(=O)N[C@@H](CCCCC)C(=O)N2CCC[C@H]2C(=O)N[C@@H](C(C)C)C(=O)N[C@@H](CO)C(=O)N[C@H](C(=O)NCC(=O)O)CSCC(=O)N[C@@H](Cc2ccc(F)cc2)C(=O)N[C@@H](Cc2ccc(O)cc2)C(=O)N[C@@H](CC(=O)O)C1=O` [compound 1462] ({CH2CO}-[Phe(4-F)]YD[NHexGly]Y[Nle]NRL[Ahp(2)]PVSCG-OH; thioether N-14), the negative logarithm of the IC50 (pIC50) is 7.65.

Take `CCCCCCN1CC(=O)N[C@@H](Cc2ccc(O)cc2)C(=O)N[C@@H](CCCC)C(=O)NCC(=O)N[C@@H](CCCNC(=N)N)C(=O)N[C@@H](CC(C)C)C(=O)N[C@@H](CCCCC)C(=O)N2CCC[C@H]2C(=O)N[C@@H](C(C)C)C(=O)N[C@@H](CC(=O)O)C(=O)N[C@H](C(=O)NCC(=O)O)CSCC(=O)N[C@@H](Cc2ccc(N)cc2)C(=O)N[C@@H](Cc2ccc(O)cc2)C(=O)N[C@@H](CC(=O)O)C1=O` [compound 1464] ({CH2CO}-[Phe(4-NH2)]YD[NHexGly]Y[Nle]GRL[Ahp(2)]PVDCG-OH; thioether N-14): the negative-log IC50 (pIC50) was 7.50.

Turning to `CCCCCCN1CC(=O)N[C@@H](Cc2ccc(O)cc2)C(=O)N[C@@H](CCCC)C(=O)N[C@H](CC(N)=O)C(=O)N[C@@H](CCCNC(=N)N)C(=O)N[C@@H](CC(C)C)C(=O)N[C@@H](CCCCC)C(=O)N2CCC[C@H]2C(=O)N[C@@H](C(C)C)C(=O)N[C@@H](CO)C(=O)N[C@H](C(=O)NCC(=O)O)CSCC(=O)N[C@@H](Cc2c[nH]c3ccccc23)C(=O)N[C@@H](Cc2ccc(O)cc2)C(=O)N[C@@H](CC(=O)O)C1=O` [compound 1471] ({CH2CO}-WYD[NHexGly]Y[Nle][dN]RL[Ahp(2)]PVSCG-OH; thioether N-14), the negative logarithm of the IC50 (pIC50) was 7.48.

`CCCCCCN1CC(=O)N[C@@H](Cc2ccc(O)cc2)C(=O)N[C@@H](CCCC)C(=O)NCC(=O)N[C@@H](CCCNC(=N)N)C(=O)N[C@@H](CC(C)C)C(=O)N[C@@H](CCCCC)C(=O)N2CCC[C@H]2C(=O)N[C@@H](C(C)C)C(=O)N[C@@H](CC(=O)O)C(=O)N[C@H](C(=O)NCC(=O)O)CSCC(=O)N[C@@H](Cc2ccc(O)cc2)C(=O)N[C@@H](Cc2ccccc2)C(=O)N[C@@H](CC(=O)O)C1=O` [compound 1472] ({CH2CO}-YFD[NHexGly]Y[Nle]GRL[Ahp(2)]PVDCG-OH; thioether N-14): the pIC50 is 7.81.

Regarding `CCCCCCN1CC(=O)N[C@@H](Cc2ccc(O)cc2)C(=O)N[C@@H](CCCC)C(=O)N[C@@H](CC(N)=O)C(=O)N[C@@H](CCCNC(=N)N)C(=O)N[C@@H](CC(C)C)C(=O)N[C@@H](CCCCC)C(=O)N2CCC[C@H]2C(=O)N[C@@H](C(C)C)C(=O)N[C@@H](CO)C(=O)N[C@H](C(=O)NCC(=O)O)CSCC(=O)N[C@@H](Cc2ccc(O)cc2)C(=O)N[C@@H](Cc2ccc(O)cc2)C(=O)N[C@@H](CC(=O)O)C1=O` [compound 1473] ({CH2CO}-YYD[NHexGly]Y[Nle]NRL[Ahp(2)]PVSCG-OH; thioether N-14), the pIC50 was 8.49.

Consider `CCCCCCN1CC(=O)N[C@@H](Cc2ccc(O)cc2)C(=O)N[C@@H](CCCC)C(=O)N[C@@H](CC(N)=O)C(=O)N[C@@H](CCCNC(=N)N)C(=O)N[C@@H](CC(C)C)C(=O)N[C@@H](CCCCC)C(=O)N2CCC[C@H]2C(=O)N[C@@H](C(C)C)C(=O)N[C@@H](CO)C(=O)N[C@H](C(=O)NCC(N)=O)CSCC(=O)N[C@@H](Cc2ccc(O)cc2)C(=O)N[C@@H](Cc2ccc(O)cc2)C(=O)N[C@@H](CC(=O)O)C1=O` [compound 1474] ({CH2CO}-YYD[NHexGly]Y[Nle]NRL[Ahp(2)]PVSCG-NH2; thioether N-14), for which the negative-log IC50 (pIC50) is 7.39.

In the case of `C=CCOc1ccc(C[C@@H]2NC(=O)CSC[C@@H](C(=O)NCC(N)=O)NC(=O)[C@H](CC(=O)O)NC(=O)[C@H](C(C)C)NC(=O)[C@@H]3CCCN3C(=O)[C@H](CCCCC)NC(=O)[C@H](CC(C)C)NC(=O)[C@H](CCCNC(=N)N)NC(=O)CNC(=O)[C@H](C(C)C)NC(=O)[C@H](Cc3ccc(O)cc3)NC(=O)CN(CCCCCC)C(=O)[C@H](CC(=O)O)NC(=O)[C@H](Cc3ccc(O)cc3)NC2=O)cc1` [compound 1475] ({CH2CO}-Y(Allyl)YD[NHexGly]YVGRL[Ahp(2)]PVDCG-NH2; thioether N-14), the pIC50 was 7.97.

Values taken from patent US20240218022A1, “ANTI-VISTA MACROCYCLIC PEPTIDES AND COMPOSITIONS” (BRISTOL-MYERS SQUIBB COMPANY, priority 2022, published 2024).
